Test results taken from patent US7989459B2, “Purinones and 1H-imidazopyridinones as PKC-theta inhibitors” (Pharmacopeia, LLC, priority 2006, dated 2011).

What was measured:
PKCθ = PKCθ (Homo sapiens, UniProt Q04759); test: Ki Pan Vera (PV) PKCθ; type: biochemical
Description: (§1) For Ki Pan Vera (PV) of PKCθ, entries identified with “A” had values below 100 nM; entries identified with “B” had values below 1 μM.

PKC delta = PKC delta (Homo sapiens, UniProt Q05655); test: Ki Pan Vera (PV) PKC delta; type: biochemical
PKC alpha = PKC alpha (Homo sapiens, UniProt P17252); test: Ki Pan Vera (PV) PKC alpha; type: biochemical
Description: [Worded in the source for another target; this target is reported under the same test.] as §1

[1] = system: anti-CD3 induced interleukin-2 (IL-2) production; test: anti-CD3 induced IL-2 production in mice; type: in vivo; settings: subcutaneous dose 30 mg/kg
Description: The compounds of the invention were also tested in vivo.

SGK1 = biological target: T1, SGK1 (Homo sapiens, UniProt O00141); test: IC50 for kinase SGK (selectivity); type: biochemical
T1 sequence (O00141 1-431): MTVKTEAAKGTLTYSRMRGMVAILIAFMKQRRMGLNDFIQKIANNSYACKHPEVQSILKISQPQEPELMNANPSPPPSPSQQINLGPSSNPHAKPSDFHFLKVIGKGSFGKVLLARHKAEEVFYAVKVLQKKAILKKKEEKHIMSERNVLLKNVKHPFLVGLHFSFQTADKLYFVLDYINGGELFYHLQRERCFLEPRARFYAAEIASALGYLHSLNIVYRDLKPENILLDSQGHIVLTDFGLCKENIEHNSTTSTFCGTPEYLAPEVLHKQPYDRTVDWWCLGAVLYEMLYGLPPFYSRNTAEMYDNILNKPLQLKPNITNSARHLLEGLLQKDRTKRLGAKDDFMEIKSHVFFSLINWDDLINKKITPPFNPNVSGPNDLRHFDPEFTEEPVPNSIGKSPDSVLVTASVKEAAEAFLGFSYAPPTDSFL
Description: Entries identified with “1” had values above 15 nM; entries identified with “2” had values above 100 nM; entries identified with “3” had values above 1 μM; entries identified with “4” had values above 10 μM. In Table 2, “nd” stands for “not determined.”

Sequence of PKC delta (Q05655 whole entry): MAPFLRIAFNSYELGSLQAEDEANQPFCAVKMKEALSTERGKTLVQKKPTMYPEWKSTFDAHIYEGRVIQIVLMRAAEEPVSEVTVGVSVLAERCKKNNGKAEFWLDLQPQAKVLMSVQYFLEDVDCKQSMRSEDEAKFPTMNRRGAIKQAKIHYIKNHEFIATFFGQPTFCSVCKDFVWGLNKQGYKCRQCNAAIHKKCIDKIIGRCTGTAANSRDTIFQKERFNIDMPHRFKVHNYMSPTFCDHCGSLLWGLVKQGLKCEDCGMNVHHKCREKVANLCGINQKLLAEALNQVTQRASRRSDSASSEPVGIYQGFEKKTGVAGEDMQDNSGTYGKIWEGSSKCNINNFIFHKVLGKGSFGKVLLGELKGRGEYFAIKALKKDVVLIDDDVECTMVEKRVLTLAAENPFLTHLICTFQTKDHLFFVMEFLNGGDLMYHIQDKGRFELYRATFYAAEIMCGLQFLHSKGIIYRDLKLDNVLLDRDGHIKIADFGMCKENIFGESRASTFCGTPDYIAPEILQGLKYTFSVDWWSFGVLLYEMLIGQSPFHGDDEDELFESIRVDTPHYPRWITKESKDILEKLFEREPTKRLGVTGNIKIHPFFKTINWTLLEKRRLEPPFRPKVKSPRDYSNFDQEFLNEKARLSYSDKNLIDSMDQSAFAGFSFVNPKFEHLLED
Sequence of PKCθ (Q04759 whole entry): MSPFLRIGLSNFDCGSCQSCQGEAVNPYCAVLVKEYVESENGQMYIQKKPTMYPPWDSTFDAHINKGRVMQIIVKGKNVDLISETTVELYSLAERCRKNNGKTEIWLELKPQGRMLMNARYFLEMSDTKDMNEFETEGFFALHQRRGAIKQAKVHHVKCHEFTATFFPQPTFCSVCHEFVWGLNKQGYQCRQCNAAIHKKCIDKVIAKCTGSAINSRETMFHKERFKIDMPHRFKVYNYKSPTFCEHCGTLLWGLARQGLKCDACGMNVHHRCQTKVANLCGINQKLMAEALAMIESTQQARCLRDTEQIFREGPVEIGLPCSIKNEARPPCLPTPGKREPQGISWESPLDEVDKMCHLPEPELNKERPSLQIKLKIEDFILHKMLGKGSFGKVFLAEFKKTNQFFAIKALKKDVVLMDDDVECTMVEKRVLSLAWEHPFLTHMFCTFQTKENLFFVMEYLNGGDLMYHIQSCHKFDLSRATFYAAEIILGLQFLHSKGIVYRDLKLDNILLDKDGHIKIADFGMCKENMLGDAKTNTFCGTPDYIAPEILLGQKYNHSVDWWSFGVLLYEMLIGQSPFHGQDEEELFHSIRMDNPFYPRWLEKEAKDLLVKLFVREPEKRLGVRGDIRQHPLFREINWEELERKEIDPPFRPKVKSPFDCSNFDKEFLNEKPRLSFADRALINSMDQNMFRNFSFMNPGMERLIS

Ki (PKCθ) [µM] | Ki (PKC delta) [µM] | Ki (PKC alpha) [µM] | IC50-SGK1 (nM) (SGK1) | SMILES | % inhibition of IL-2 production [1] [%]
< 0.1 | > 0.1 | > 1 |  | NCCCNc1ncc2[nH]c(=O)n(Cc3cc(Cl)ccc3Cl)c2n1 [Compound 115] | 40
< 0.1 | > 0.1 | > 10 | Inactive | NCCCNc1ncc2[nH]c(=O)n(Cc3c(Cl)cccc3Cl)c2n1 [Compound 120, 9-(2,6-dichlorobenzyl)-2-(3-aminopropylamino)-7H-purin-8(9H)-one] | 40
